# According to US20100298141A1, “SUBSTITUTED PYRIDINE N-OXIDE HERBICIDES” (E. I. DU PONT DE NEMOURS AND COMPANY, priority 2007, published 2010):
# Assays:
# blackgrass = experiment: Test C pre-/postemergence test; format: in vivo, Alopecurus myosuroides; details: for Plant response rating, Blackgrass: scale 0 to 100 (0 no effect, 100 complete control)
# Method in brief: (§1)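 Test chemicals were formulated with surfactant in a non-phytotoxic solvent and sprayed both on freshly planted seeds (preemergence) and on 1- to 4-leaf plants of 2–18 cm (postemergence). Flooded-paddy pots received compound directly into 3 cm of standing water, maintained for the test.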
# corn = experiment: Test C pre-/postemergence test; format: in vivo, Zea mays; details: for Plant response rating, Corn: scale 0 to 100 (0 no effect, 100 complete control)
# Method in brief: as §1
# woolly cupgrass = experiment: Test C pre-/postemergence test; format: in vivo, Eriochloa villosa; details: for Plant response rating, Cupgrass, Woolly: scale 0 to 100 (0 no effect, 100 complete control)
# Method in brief: as §1
# Russian thistle = experiment: Test C pre-/postemergence test; format: in vivo, Salsola kali; details: for Plant response rating, Russian Thistle: scale 0 to 100 (0 no effect, 100 complete control)
# Excerpt: Seeds of plant species selected from blackgrass (Alopecurus myosuroides), downy brome (Bromus tectorum), green foxtail (Setaria viridis), Italian ryegrass (Lolium multiflorum), wheat (Triticum aestivum), wild oat (Avena fatua), catchweed bedstraw (Galium aparine), Russian thistle (Salsola kali), […] (Cynodon dactylon), Surinam grass (Brachiaria decumbens), cocklebur (Xanthium strumarium), corn (Zea mays), crabgrass (Digitaria sanguinalis), woolly cupgrass (Eriochloa villosa), giant foxtail (Setaria faberii), Goosegrass (Eleusin indica), johnsongrass (Sorghum halepense), kochia (Kochia scoparia), lambsquarters (Chenopodium album), morningglory (Ipomoea coccinea), eastern black nightshade (Solanum ptycanthum), yellow nutsedge (Cyperus esculentus), pigweed (Amaranthus retroflexus), common ragweed (Ambrosia elation), soybean (Glycine max), common (oilseed) sunflower (Helianthus annuus), and velvetleaf (Abutilon theophrasti) were planted and treated preemergence with test chemicals formulated in a non-phytotoxic solvent mixture which included a surfactant. At the same time, plants selected from these crop and weed species and also winter barley (Hordeum vulgare), canarygrass (Phalaris minor), and chickweed (Stellaria media) were treated with postemergence applications of some of the test chemicals formulated in the same manner. Plants ranged in height from 2 to 18 cm (1- to 4-leaf stage) for postemergence treatments. […] At time of treatment, test pots were flooded to 3 cm above the soil surface, treated by application of test compounds directly to the paddy water, and then maintained at that water depth for the duration of the test. […] A dash (-) response means no test result.
# bermudagrass = experiment: Test F preemergence test; format: in vivo, Cynodon dactylon; details: scale 0 to 100
# Method in brief: (§2)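 Compounds in a non-phytotoxic solvent formulation with surfactant were applied before emergence after sowing, or, for sugarcane, also postemergence. Evaluation was visual, against controls, after 14 to 21 greenhouse days.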
# purple nutsedge = experiment: Test F preemergence test; format: in vivo, Cyperus rotundus; details: scale 0 to 100
# Method in brief: as §2
# goosegrass = experiment: Test F preemergence test; format: in vivo, Eleusine indica; details: scale 0 to 100
# Method in brief: as §2
# large crabgrass = experiment: Test F preemergence test; format: in vivo, Digitaria sanguinalis; details: scale 0 to 100
# Method in brief: as §2
# quackgrass = experiment: Test F preemergence test; format: in vivo, Elytrigia repens; details: scale 0 to 100
# Method in brief: as §2
# common ragweed = experiment: Test F preemergence test; format: in vivo, Ambrosia elation; details: scale 0 to 100
# Method in brief: as §2
# kochia = experiment: Test F preemergence test; format: in vivo, Kochia scoparia; details: scale 0 to 100; for Plant response rating, Kochia: Preemergence
# Method in brief: as §2
# barnyardgrass = experiment: Test F preemergence test; format: in vivo, Echinochloa crus-galli
# Method in brief: as §2
# Surinam grass = experiment: Test F preemergence test; format: in vivo, Brachiaria decumbens; details: scale 0 to 100
# Method in brief: as §2
# mustard = experiment: Test F preemergence test; format: in vivo, Brassica nigra; details: scale 0 to 100
# Method in brief: as §2
# southern sandbur = experiment: Test F preemergence test; format: in vivo, Cenchrus echinatus; details: scale 0 to 100
# Method in brief: as §2
# Italian ryegrass = experiment: Test F preemergence test; format: in vivo, Lolium multiflorum; details: scale 0 to 100
# Method in brief: as §2
# broadleaf signalgrass = experiment: Test F preemergence test; format: in vivo, Brachiaria platyphylla; details: scale 0 to 100
# Method in brief: as §2
# [1] = 31 g ai/ha, Preemergence, scale 0 to 100
# [2] = 62 g ai/ha, preemergence, scale 0 (no effect) to 100 (complete control)
# [3] = preemergence, 125 g ai/ha, scale 0 (no effect) to 100 (complete control)
# [4] = 62 g ai/ha, Preemergence, scale 0 to 100
# [5] = 125 g ai/ha, preemergence, scale 0 (no effect) to 100 (complete control)
# [6] = preemergence, 250 g ai/ha, scale 0 (no effect) to 100 (complete control)
smiles,measurement,setting,value
Cc1cc[n+]([O-])c(S(=O)(=O)C(C)c2c(C(F)(F)F)nn(C)c2Cl)c1 (racemic) [Compound 14],Blackgrass plant response rating,blackgrass; [1],40
same,Blackgrass plant response rating,blackgrass; [2],80
same,"Plant response rating (0 to 100), Blackgrass","blackgrass; Preemergence, 250 g ai/ha",80
same,Corn plant response rating,corn; [1],0
same,Corn plant response rating,corn; [2],20
same,"Plant response rating (0 to 100), Corn","corn; Preemergence, 250 g ai/ha",80
same,Corn plant response rating,corn; [3],60
same,"Cupgrass, Woolly plant response rating",woolly cupgrass; [1],85
same,"Cupgrass, Woolly plant response rating",woolly cupgrass; [2],85
same,"Plant response rating (0 to 100), Cupgrass, Woolly","woolly cupgrass; Preemergence, 250 g ai/ha",100
same,"Cupgrass, Woolly plant response rating",woolly cupgrass; [3],90
same,Russian Thistle plant response rating,Russian thistle; [1],80
same,Russian Thistle plant response rating,Russian thistle; [2],100
same,"Plant response rating (0 to 100), Russian Thistle","Russian thistle; Preemergence, 250 g ai/ha",100
same,Russian Thistle plant response rating,Russian thistle; [3],100
Cn1nc(C(F)(F)F)c(C[S+]([O-])c2cc(C(C)(C)C)cc[n+]2[O-])c1OC(F)F (racemic) [Compound 24],Blackgrass plant response rating,blackgrass; [4],20
same,"Plant response rating, Blackgrass","blackgrass; Preemergence, 31 g ai/ha",20
same,"Plant response rating (0 to 100), Blackgrass","blackgrass; Preemergence, 250 g ai/ha",100
same,Blackgrass plant response rating,blackgrass; [3],50
same,Corn plant response rating,corn; [4],50
same,"Plant response rating, Corn","corn; Preemergence, 31 g ai/ha",0
same,"Plant response rating (0 to 100), Corn","corn; Preemergence, 250 g ai/ha",90
same,Corn plant response rating,corn; [3],90
same,"Cupgrass, Woolly plant response rating",woolly cupgrass; [4],60
same,"Plant response rating, Cupgrass, Woolly","woolly cupgrass; Preemergence, 31 g ai/ha",40
same,"Plant response rating (0 to 100), Cupgrass, Woolly","woolly cupgrass; Preemergence, 250 g ai/ha",100
same,Russian Thistle plant response rating,Russian thistle; [4],0
CC(c1c(C(F)(F)F)nn(C)c1OC(F)F)S(=O)(=O)c1cc(C(C)(C)C)cc[n+]1[O-] (racemic) [Compound 26],Blackgrass plant response rating,blackgrass; [4],100
same,"Plant response rating, Blackgrass","blackgrass; Preemergence, 31 g ai/ha",80
same,"Plant response rating (0 to 100), Blackgrass","blackgrass; Preemergence, 250 g ai/ha",100
same,Blackgrass plant response rating,blackgrass; [3],100
same,Corn plant response rating,corn; [4],0
same,"Plant response rating, Corn","corn; Preemergence, 31 g ai/ha",0
same,"Plant response rating (0 to 100), Corn","corn; Preemergence, 250 g ai/ha",95
same,Corn plant response rating,corn; [3],70
same,"Cupgrass, Woolly plant response rating",woolly cupgrass; [4],40
same,"Plant response rating, Cupgrass, Woolly","woolly cupgrass; Preemergence, 31 g ai/ha",40
same,"Plant response rating (0 to 100), Cupgrass, Woolly","woolly cupgrass; Preemergence, 250 g ai/ha",98
same,Russian Thistle plant response rating,Russian thistle; [4],50
same,"Plant response rating, Russian Thistle","Russian thistle; Preemergence, 31 g ai/ha",0
Cn1nc(C(F)(F)F)c(C[S+]([O-])c2cc(C(F)(F)F)cc[n+]2[O-])c1Cl (racemic) [Compound 34],Blackgrass plant response rating,blackgrass; [4],30
same,"Plant response rating, Blackgrass","blackgrass; Preemergence, 31 g ai/ha",30
same,"Plant response rating (0 to 100), Blackgrass","blackgrass; Preemergence, 250 g ai/ha",65
same,Blackgrass plant response rating,blackgrass; [3],50
same,Corn plant response rating,corn; [4],0
same,"Plant response rating, Corn","corn; Preemergence, 31 g ai/ha",0
same,"Plant response rating (0 to 100), Corn","corn; Preemergence, 250 g ai/ha",20
same,Corn plant response rating,corn; [3],5
same,"Cupgrass, Woolly plant response rating",woolly cupgrass; [4],35
same,"Plant response rating, Cupgrass, Woolly","woolly cupgrass; Preemergence, 31 g ai/ha",35
same,"Plant response rating (0 to 100), Cupgrass, Woolly","woolly cupgrass; Preemergence, 250 g ai/ha",75
same,Russian Thistle plant response rating,Russian thistle; [4],100
same,"Plant response rating, Russian Thistle","Russian thistle; Preemergence, 31 g ai/ha",70
Cn1nc(C(F)(F)F)c(C[S+]([O-])c2ccc(Cl)c[n+]2[O-])c1OCC(F)F (centres unmarked) [Compound 85],"Plant response rating, Bermudagrass","bermudagrass; 16 g ai/ha, preemergence",20
same,Bermudagrass plant response rating,"bermudagrass; 125 g ai/ha, preemergence",95
same,"Plant response rating, Bermudagrass","bermudagrass; Preemergence, 62 g ai/ha",80
same,"Plant response rating, Bermudagrass","bermudagrass; Preemergence, 31 g ai/ha",60
same,"Plant response rating, Purple Nutsedge","purple nutsedge; 16 g ai/ha, preemergence",0
same,Purple Nutsedge plant response rating,"purple nutsedge; 125 g ai/ha, preemergence",65
same,"Plant response rating, Purple Nutsedge","purple nutsedge; Preemergence, 62 g ai/ha",50
same,"Plant response rating, Purple Nutsedge","purple nutsedge; Preemergence, 31 g ai/ha",0
same,"Plant response rating, Goosegrass","goosegrass; 16 g ai/ha, preemergence",35
same,Goosegrass plant response rating,"goosegrass; 125 g ai/ha, preemergence",100
same,"Plant response rating, Goosegrass","goosegrass; Preemergence, 62 g ai/ha",80
same,"Plant response rating, Goosegrass","goosegrass; Preemergence, 31 g ai/ha",65
same,Blackgrass plant response rating,blackgrass; [4],100
same,Blackgrass plant response rating,blackgrass; [5],100
same,"Plant response rating, Blackgrass","blackgrass; Preemergence, 31 g ai/ha",100
same,Blackgrass plant response rating,blackgrass; [6],100
same,"Plant response rating, Crabgrass, Large","large crabgrass; 16 g ai/ha, preemergence",60
same,"Crabgrass, Large plant response rating","large crabgrass; 125 g ai/ha, preemergence",90
same,"Plant response rating, Crabgrass, Large","large crabgrass; Preemergence, 62 g ai/ha",90
same,"Plant response rating, Crabgrass, Large","large crabgrass; Preemergence, 31 g ai/ha",70
same,"Plant response rating, Quackgrass","quackgrass; 16 g ai/ha, preemergence",20
same,Quackgrass plant response rating,"quackgrass; 125 g ai/ha, preemergence",95
same,"Plant response rating, Quackgrass","quackgrass; Preemergence, 62 g ai/ha",80
same,"Plant response rating, Quackgrass","quackgrass; Preemergence, 31 g ai/ha",65
same,"Plant response rating, Ragweed","common ragweed; 16 g ai/ha, preemergence",0
same,Ragweed plant response rating,"common ragweed; 125 g ai/ha, preemergence",80
same,"Plant response rating, Ragweed","common ragweed; Preemergence, 62 g ai/ha",80
same,"Plant response rating, Ragweed","common ragweed; Preemergence, 31 g ai/ha",20
same,Kochia plant response rating,"kochia; 125 g ai/ha, preemergence",100
same,"Plant response rating, Kochia",kochia; 62 g ai/ha,100
same,"Plant response rating, Kochia",kochia; 31 g ai/ha,25
same,Corn plant response rating,corn; [4],95
same,Corn plant response rating,corn; [5],98
same,"Plant response rating, Corn","corn; Preemergence, 31 g ai/ha",95
same,Corn plant response rating,corn; [6],99
same,"Plant response rating, Barnyardgrass","barnyardgrass; 16 g ai/ha, preemergence, scale 0 to 100 (0 no effect, 100 complete control)",50
same,Barnyardgrass plant response rating,"barnyardgrass; 125 g ai/ha, preemergence, scale 0 to 100",100
same,"Plant response rating, Barnyardgrass","barnyardgrass; Preemergence, 62 g ai/ha, scale 0 to 100",90
same,"Plant response rating, Barnyardgrass","barnyardgrass; Preemergence, 31 g ai/ha, scale 0 to 100",80
same,"Plant response rating, Surinam Grass","Surinam grass; 16 g ai/ha, preemergence",60
same,Surinam Grass plant response rating,"Surinam grass; 125 g ai/ha, preemergence",100
same,"Plant response rating, Surinam Grass","Surinam grass; Preemergence, 62 g ai/ha",100
same,"Plant response rating, Surinam Grass","Surinam grass; Preemergence, 31 g ai/ha",100
same,"Cupgrass, Woolly plant response rating",woolly cupgrass; [4],95
same,"Cupgrass, Woolly plant response rating",woolly cupgrass; [5],95
same,"Plant response rating, Cupgrass, Woolly","woolly cupgrass; Preemergence, 31 g ai/ha",80
same,"Cupgrass, Woolly plant response rating",woolly cupgrass; [6],100
same,"Plant response rating, Black Mustard","mustard; 16 g ai/ha, preemergence",40
same,Black Mustard plant response rating,"mustard; 125 g ai/ha, preemergence",60
same,"Plant response rating, Black Mustard","mustard; Preemergence, 62 g ai/ha",40
same,"Plant response rating, Black Mustard","mustard; Preemergence, 31 g ai/ha",40
same,"Plant response rating, Sandbur","southern sandbur; 16 g ai/ha, preemergence",10
same,Sandbur plant response rating,"southern sandbur; 125 g ai/ha, preemergence",100
same,"Plant response rating, Sandbur","southern sandbur; Preemergence, 62 g ai/ha",100
same,"Plant response rating, Sandbur","southern sandbur; Preemergence, 31 g ai/ha",70
same,"Plant response rating, Ryegrass, Italian","Italian ryegrass; 16 g ai/ha, preemergence",65
same,"Ryegrass, Italian plant response rating","Italian ryegrass; 125 g ai/ha, preemergence",100
same,"Plant response rating, Ryegrass, Italian","Italian ryegrass; Preemergence, 62 g ai/ha",100
same,"Plant response rating, Ryegrass, Italian","Italian ryegrass; Preemergence, 31 g ai/ha",65
same,"Plant response rating, Signalgrass","broadleaf signalgrass; 16 g ai/ha, preemergence",60
same,Signalgrass plant response rating,"broadleaf signalgrass; 125 g ai/ha, preemergence",80
same,"Plant response rating, Signalgrass","broadleaf signalgrass; Preemergence, 62 g ai/ha",70
same,"Plant response rating, Signalgrass","broadleaf signalgrass; Preemergence, 31 g ai/ha",70
